Test results: ChEMBL document CHEMBL1137983, “AL-12182, a novel 11-oxa prostaglandin analog with topical ocular hypotensive activity in the monkey” (Bioorg Med Chem Lett, 2004)

Legend:
Felis catus = species on record: Felis catus; assay: Effective dose to cat pupil diameter constriction
Oryctolagus cuniculus = species on record: Oryctolagus cuniculus; assay: Effective dose estimated to elicit conjunctival hyperemia in rabbits over 4 h; type: functional, Conjunctiva
Monkey [1] = assay: Percentage change to elicit monkey intraocular pressure at 1 ug; type: functional, Cercopithecidae, Eye
[2] = target: Prostaglandin F2-alpha receptor (Bos taurus, UniProt P37289); assay: Binding affinity for Prostanoid FP receptor of bovine corpus luteum
[3] = target: Prostaglandin F2-alpha receptor (Mus musculus) (UniProt P43117); assay: Percent response for stimulation of prostanoid FP receptor-linked phosphoinositide turnover in Swiss 3T3 mouse fibroblast cells
Monkey [4] = assay: Percentage change to elicit monkey intraocular pressure at 3 ug; type: functional, Cercopithecidae, Eye
Monkey [5] = assay: Percentage change to elicit monkey intraocular pressure at 0.3 ug; type: functional, Cercopithecidae, Eye
Monkey [6] = assay: Percentage change to elicit monkey intraocular pressure at 30 ug; type: functional, Cercopithecidae, Eye

Sequence of Prostaglandin F2-alpha receptor (P37289 whole entry): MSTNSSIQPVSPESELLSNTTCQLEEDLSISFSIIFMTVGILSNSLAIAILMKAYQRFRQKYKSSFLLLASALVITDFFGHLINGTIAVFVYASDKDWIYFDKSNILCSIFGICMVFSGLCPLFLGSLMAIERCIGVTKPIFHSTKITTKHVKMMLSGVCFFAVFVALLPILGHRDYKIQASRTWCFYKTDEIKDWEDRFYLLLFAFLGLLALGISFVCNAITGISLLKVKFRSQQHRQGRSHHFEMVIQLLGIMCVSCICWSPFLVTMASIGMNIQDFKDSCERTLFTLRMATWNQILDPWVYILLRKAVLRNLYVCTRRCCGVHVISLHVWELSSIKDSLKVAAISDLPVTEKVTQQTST
Sequence of Prostaglandin F2-alpha receptor (Mus musculus) (P43117 whole entry, looked up): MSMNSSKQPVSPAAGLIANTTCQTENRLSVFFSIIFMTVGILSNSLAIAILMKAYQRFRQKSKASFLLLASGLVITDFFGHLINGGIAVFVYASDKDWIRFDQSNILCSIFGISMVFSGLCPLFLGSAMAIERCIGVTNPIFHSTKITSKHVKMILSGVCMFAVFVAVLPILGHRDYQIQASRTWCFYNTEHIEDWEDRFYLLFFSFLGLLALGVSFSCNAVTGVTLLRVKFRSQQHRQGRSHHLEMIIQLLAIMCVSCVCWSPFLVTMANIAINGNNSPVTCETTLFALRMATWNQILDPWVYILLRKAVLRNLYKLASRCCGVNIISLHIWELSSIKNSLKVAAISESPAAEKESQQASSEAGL

SMILES	Ki [2] [µM]	Response [3] [%]	also measured
CCCCC[C@H](O)/C=C/C1[C@H](O)C[C@H](O)[C@@H]1C/C=C\CCCC(=O)OC(C)C (stereo partly specified)			ED5 (Felis catus): 0.03 µg; ED5 (Oryctolagus cuniculus): <0.1 µg; Change (Monkey [1]): -38%
CCCCC[C@@H](O)/C=C/[C@H]1OC[C@H](O)[C@@H]1C/C=C\CCCC(=O)O	> 10		
O=C(O)CC/C=C\CCC[C@H]1[C@@H](O)CO[C@@H]1/C=C/[C@H](O)COc1cccc(C(F)(F)F)c1	9.9	61	
O=C(O)CCCC/C=C\C[C@H]1[C@@H](O)CO[C@@H]1/C=C/[C@@H](O)COc1ccccc1	0.64	67	
O=C(O)CCCC/C=C\C[C@H]1[C@@H](O)CO[C@@H]1/C=C/[C@H](O)COc1cccc(C(F)(F)F)c1	> 10	43	
CCCCC[C@H](O)/C=C/[C@H]1OC[C@H](O)[C@@H]1C/C=C\CCCC(=O)O	6.7	64	
O=C(O)CCCC/C=C\C[C@H]1[C@@H](O)CO[C@@H]1/C=C/[C@H](O)COc1ccccc1	2.8	49	
CC(C)OC(=O)CCC/C=C\CC[C@H]1[C@@H](O)CO[C@@H]1/C=C/[C@@H](O)COc1cccc(Cl)c1 [AL-12182]			ED5 (Felis catus): 0.2 µg; Change (Monkey [4]): -40%; ED5 (Oryctolagus cuniculus): 30 µg
O=C(O)CC/C=C\CCC[C@H]1[C@@H](O)CO[C@@H]1/C=C/[C@@H](O)COc1cccc(C(F)(F)F)c1	0.35	88	
O=C(O)CC/C=C\CCC[C@H]1[C@@H](O)CO[C@@H]1/C=C/[C@@H](O)COc1cccc(Cl)c1	0.147	88	
O=C(O)CCCC/C=C\C[C@H]1[C@@H](O)CO[C@@H]1/C=C/[C@@H](O)COc1cccc(Cl)c1	0.89	84	
CC(C)OC(=O)CCC/C=C/C[C@@H]1[C@@H](/C=C/C(O)COc2cccc(C(F)(F)F)c2)[C@H](O)C[C@@H]1O (stereo partly specified)	0.052	100	ED5 (Felis catus): 0.01 µg; Change (Monkey [5]): -29%; ED5 (Oryctolagus cuniculus): 3 µg
O=C(O)CC/C=C\CCC[C@H]1[C@@H](O)CO[C@@H]1/C=C/[C@@H](O)COc1ccccc1	0.33	83	
CC(C)OC(=O)CCC/C=C/C[C@@H]1[C@@H](CC[C@@H](O)CCc2ccccc2)[C@H](O)C[C@@H]1O	0.092	75	ED5 (Felis catus): 0.13 µg; Change (Monkey [4]): -27%; ED5 (Oryctolagus cuniculus): 1.8 µg
CC(C)OC(=O)CCC/C=C\C[C@H]1[C@@H](O)CO[C@@H]1/C=C/[C@@H](O)COc1cccc(Cl)c1			Change (Monkey [6]): -15%; ED5 (Felis catus): 0.8 µg; ED5 (Oryctolagus cuniculus): 30 µg
O=C(O)CC/C=C\CCC[C@H]1[C@@H](O)CO[C@@H]1/C=C/[C@H](O)COc1ccccc1	5.1	59	
O=C(O)CCCC/C=C\C[C@H]1[C@@H](O)CO[C@@H]1/C=C/[C@@H](O)COc1cccc(C(F)(F)F)c1	3.1	74	
O=C(O)CCCC/C=C\C[C@H]1[C@@H](O)CO[C@@H]1/C=C/[C@H](O)COc1cccc(Cl)c1	7.3	67	
O=C(O)CC/C=C\CCC[C@H]1[C@@H](O)CO[C@@H]1/C=C/[C@H](O)COc1cccc(Cl)c1	0.82	71	
